Measurements reported in patent publication US5620676A, “Biologically active ATP analogs” (priority 1995, dated 1997).
“Also recorded” adds a separate entry of the source. Read-outs that look alike come from different tables or passages of the source.

How the values were obtained:
[1] = target: T1, P2Y receptor (taenia coli) (Cavia porcellus, UniProt P59902); assay: Relaxation of carbachol-contracted guinea pig taenia coli
T1 construct: Relaxant responses mediated via P2Y receptors were examined in guinea pig taenia coli; from tissue; host or cells: guinea pig taenia coli (carbachol-contracted)
T1 sequence (P59902 whole entry): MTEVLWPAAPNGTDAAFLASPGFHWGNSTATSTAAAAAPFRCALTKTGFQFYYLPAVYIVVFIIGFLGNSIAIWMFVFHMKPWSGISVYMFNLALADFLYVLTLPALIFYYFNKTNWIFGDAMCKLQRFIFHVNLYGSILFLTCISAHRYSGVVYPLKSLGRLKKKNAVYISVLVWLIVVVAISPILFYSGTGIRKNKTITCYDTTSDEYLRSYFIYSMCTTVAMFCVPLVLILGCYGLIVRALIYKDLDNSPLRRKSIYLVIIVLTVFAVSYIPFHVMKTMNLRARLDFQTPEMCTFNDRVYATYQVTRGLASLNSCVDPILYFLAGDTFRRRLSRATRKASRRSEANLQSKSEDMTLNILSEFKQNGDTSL
Source text: (§1) Muscular relaxation/contraction: Relaxant responses mediated via P2Y receptors were examined in guinea pig taenia coli, rabbit aorta, and rabbit mesenteric artery, as described by Hoyle et al. (Br. J. Pharmacol., 107, 367-374 (1992a)), Burnstock et al., (Br. J. Pharmacol., 90, 383-391 (1987a)), and Rubino et al., (Eur. J. Pharmacol., 212, 237-240 (1992)). Contractile responses mediated via P2X receptors were examined in the guinea pig urinary bladder and vas deferens, and rabbit saphenous artery, also using standard methods (see Hoyle et al., supra., 1992; Hoyle et al., Br. J. Pharmacol., 99, 617-621 (1990); and Burnstock et al., Br. J. Pharmacol., 90, 111-120 (1987b)).
Muscular relaxation assays were performed as recited in Example 3. […] All curves are the mean of two determinations except for 5'-ATP (n=38), 2-hexylthio-ATP (n=4), 2-(5-hexenyl)thio-ATP (n=3), and 2-(2-4-nitrophenylethyl)thio-AMP (n=5). […] The pD2 value for 2-methylthio-ATP is 8.0±0.15, as reported by Hoyle et al., in Receptor Data for Biological Experiments, (H. N. Doods and J. C. A. Van Meel, eds., 1992b) at pp. 54-61.
(§2) Phospholipase C activity and muscle relaxation/contraction effects were assessed using the methods recited in Example 3. In FIGS. 10-12, which present the result of assays of phospholipase C activity in turkey erythrocyte membranes, the x-axis is marked in units of the log of the molar concentration of the putative P2Y receptor agonist tested and the y-axis is marked in units of the percentage of maximum production of [^3 H]-inositol phosphate generated. In FIG. 13, the x-axis is marked in units of the negative log of the molar concentration of applied putative P2Y receptor agonists and the y-axis is marked in units of the percentage relaxation of the 50 nM carbachol-induced contraction of guinea pig taenia coli. In FIG. 14, the x-axis is also marked in units of the negative log of the molar concentration of applied putative P2Y receptor agonists and the y-axis is marked in units of the percentage relaxation of the 1 μM noradrenalin-induced contraction of rabbit aorta endothelium. In FIGS. 15-16, the x-axis is marked in units of the negative log of the molar concentration of applied putative p^2X receptor agonists and the y-axis is marked in units of the percentage contraction relative to a standard dose of KCl (i.e., 60 mM), as assessed in guinea pig isolated urinary bladder detrussor muscle (FIG. 15) and guinea pig isolated vas deferens (FIG. 16).

[2] = target: T2, P2X receptor (vas deferens) (Cavia porcellus, UniProt A0A286XVA9); assay: Contraction of guinea pig isolated vas deferens
T2 sequence (A0A286XVA9 1-399): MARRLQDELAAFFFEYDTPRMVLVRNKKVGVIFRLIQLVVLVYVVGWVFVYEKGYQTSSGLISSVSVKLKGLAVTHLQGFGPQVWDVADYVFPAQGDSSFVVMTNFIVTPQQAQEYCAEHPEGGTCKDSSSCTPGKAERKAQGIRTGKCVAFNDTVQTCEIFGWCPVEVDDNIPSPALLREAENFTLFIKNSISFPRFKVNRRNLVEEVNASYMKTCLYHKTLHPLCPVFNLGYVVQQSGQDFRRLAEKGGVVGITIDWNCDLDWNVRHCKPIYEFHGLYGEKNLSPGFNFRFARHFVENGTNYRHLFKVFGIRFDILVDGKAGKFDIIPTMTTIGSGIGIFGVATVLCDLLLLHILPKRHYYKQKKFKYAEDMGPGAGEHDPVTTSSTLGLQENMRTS

[3] = target: T3, P2X receptor (urinary bladder) (Cavia porcellus, UniProt A0A286XVA9); assay: Contraction of guinea pig isolated urinary bladder detrussor muscle; details: guinea pig urinary bladder
T3 construct: guinea pig isolated urinary bladder detrussor muscle; from tissue; host or cells: guinea pig isolated urinary bladder detrusor muscle

[4] = target: T4, P2Y receptor (turkey erythrocyte membranes) (Meleagris gallopavo, UniProt P49652); assay: Stimulation of phospholipase C (inositol phosphate formation) in turkey erythrocyte membranes; format: biochemical; details: for activity/potency in words, turkey erythrocyte / EC50: turkey erythrocyte membranes
T4 construct: from tissue; host or cells: washed turkey erythrocytes, ghosts prepared by hypotonic lysis
T4 sequence (P49652 whole entry): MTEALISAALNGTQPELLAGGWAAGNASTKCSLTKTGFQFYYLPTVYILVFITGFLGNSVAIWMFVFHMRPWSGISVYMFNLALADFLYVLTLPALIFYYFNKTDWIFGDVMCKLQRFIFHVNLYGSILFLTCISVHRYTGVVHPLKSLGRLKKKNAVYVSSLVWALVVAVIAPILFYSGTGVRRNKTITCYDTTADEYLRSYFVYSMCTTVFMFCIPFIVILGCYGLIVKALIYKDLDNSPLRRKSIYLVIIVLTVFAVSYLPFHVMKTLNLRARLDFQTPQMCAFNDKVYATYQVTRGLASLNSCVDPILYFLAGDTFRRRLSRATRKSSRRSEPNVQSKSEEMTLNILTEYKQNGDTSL
Protocol: Phospholipase C activity: Stimulation of inositol phosphate formation by compounds of the present invention was measured in turkey erythrocyte membranes as described by Harden et al., supra and Boyer et al., supra. The K0.5 values were averaged from 3-8 independently determined dose-response curves for each compound. Briefly, one ml of washed turkey erythrocytes was incubated in inositol-free medium (DMEM; Gibco) with 0.5-1 mCi of 2-[^3 H]myoinositol (20 Ci/mmol; American Radiolabeled Chemicals Inc., St. Louis, Mo.)for 18-24 h in a humidified atmosphere of 95% air 5% CO2 at 37° C. Erythrocyte ghosts were prepared by rapid lysis in hypotonic buffer (5 mM sodium phosphate, pH 7.4, 5 mM MgCl2, 1 mM EGTA) as described by Boyer et al., supra. Phospholipase C activity was measured in 25 μl of [^3 H]inositol-labeled ghosts (≈175 μg of protein, 200-500,000 cpm/assay) in a medium containing 424 μM CaC12, 0.91 mM MgSO4, 2 mM EGTA, 115 mM KCl, 5 mM KH2 PO4, and 10 mM Hepes, pH 7.0. Assay (100 μl or 200 μl final volume) contained 1 μM GTPγS and the indicated concentrations of nucleotide analogs. Ghosts were incubated at 30° C. for 5 min, and total [^3 H]inositol phosphates were quantitated after purification by anion exchange chromatography according to Harden et al. (supra) and Boyer et al. (supra).
as §2

[5] = target: T5, P2X receptor (saphenous artery) (Oryctolagus cuniculus, UniProt G1U3D6); assay: Contraction of rabbit saphenous artery; details: for activation at 10 µM: read-out: response at 10 μM relative to the contraction produced by 1 μM α,MeATP, saph. artery
T5 construct: and rabbit saphenous artery; from tissue; host or cells: rabbit saphenous artery
T5 sequence (G1U3D6 1-399): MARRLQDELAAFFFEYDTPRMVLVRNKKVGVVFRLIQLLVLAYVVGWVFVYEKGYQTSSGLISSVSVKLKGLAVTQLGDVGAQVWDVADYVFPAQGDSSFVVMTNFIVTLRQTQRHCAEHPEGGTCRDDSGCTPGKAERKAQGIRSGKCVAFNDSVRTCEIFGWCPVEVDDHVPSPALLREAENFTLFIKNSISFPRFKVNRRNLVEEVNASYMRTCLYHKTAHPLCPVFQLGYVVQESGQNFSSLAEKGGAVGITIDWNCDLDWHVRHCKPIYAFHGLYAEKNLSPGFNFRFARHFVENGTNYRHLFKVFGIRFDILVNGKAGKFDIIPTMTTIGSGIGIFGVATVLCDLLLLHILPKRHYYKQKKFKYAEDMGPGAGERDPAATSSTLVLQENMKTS
Source text: as §1
^c For the saphenous artery, the percentages in brackets are response
at 10 μM relative to the contraction produced by 1 μM α,MeATP
ATP in this assay is very weak (EC50 =
1.78 mM). The highest concentrations of the analogues tested were 3-30

[6] = system: P2Y receptor (aorta endothelium); assay: Relaxation of noradrenalin-contracted rabbit aorta; details: for activity/potency/selectivity in words, aorta: rabbit aorta endothelial P2Y receptor; for relaxation pD2, aorta: rabbit aorta, log molar units
[7] = system: P2Y receptor (mesenteric artery); assay: Relaxation of rabbit mesenteric artery; details: for relaxation pD2, mes. artery: log molar units
[8] = guinea pig taenia coli, log molar units, read-out: relaxation pD2, taenia coli (converted)
[9] = mean ± S.E.M. for at least 2 determinations, read-out: phosphatidyl inositol metabolism (K0.5, nM) erythrocyte

SMILES	activity/potency in words, taenia coli ([1]; guinea pig taenia coli)	activity/potency in words, vas deferens [2]	activity/potency in words, turkey erythrocyte [4]	EC50 [4, 9] [nM]	relaxation pD2, mes. artery [7]	activity/potency in words, bladder [3]	also measured
Nc1ncnc2c1ncn2[C@H]1CC[C@@H](COP(=O)(O)OP(=O)(O)OP(=O)(O)O)O1 [2',3'-Dideoxy-ATP, 2',3'-dideoxy-ATP, reference compound]	as potent as ATP at taenia coli P2Y receptors	≈ATP	weakly active at turkey erythrocyte P2Y receptors	70800	–	>ATP	EC50 [1, 8]: 10 µM
Nc1ncnc2c1ncn2[C@@H]1O[C@H](COP(=O)(O)OP(=O)(O)CP(=O)(O)O)[C@@H](O)[C@H]1O [β,γ-Me-ATP, β,γ-methylene-ATP, reference compound]	reduced activity in the taenia coli	markedly enhanced activity	nearly inactive at ≥100 μM	–	–	markedly enhanced activity	activation at 10 µM [5]: 89%; EC50 ([4]; phosphatidyl inositol metabolism (K0.5, nM) erythrocyte, mean ± S.E.M. for at least 2 determinations): > 100000 nM
CC(=O)N[C@H]1[C@@H](O)[C@H](n2cnc3c(N)ncnc32)O[C@@H]1COP(=O)(O)OP(=O)(O)OP(=O)(O)O [3'-Acetylamino-3'deoxy-ATP, 3'-Acetylamino-3'-deoxyadenosine 5'-triphosphate]	nearly inactive	more or less as potent as ATP; also recorded: active in the vas deferens and urinary bladder	nearly inactive	> 100000	–	more or less as potent as ATP; also recorded: active in the vas deferens and urinary bladder	activity/potency in words, saphenous artery ([5]; rabbit saphenous artery): inactive in the saphenous artery; activity/potency/selectivity in words, aorta [6]: inactive at 10 μM at rabbit aorta P2Y receptors; activity/potency in words, mesenteric artery ([7]; listed as 3'-Acetylamino-3'-deoxy-ATP): more potent than ATP at rabbit mesenteric artery P2Y receptors; activity/potency in words, mesenteric artery ([7]; listed as 3'-acetylamino-3'-deoxy-ATP): the only P2Y receptor which had any appreciable activity was that in the rabbit mesenteric artery
Nc1ncnc2c1ncn2[C@@H]1O[C@H](COP(=O)(O)OP(=O)(O)OP(=O)(O)O)[C@@H](NC(=O)CCc2ccc(O)cc2)[C@H]1O [3'-[3-(p-Hydroxyphenyl)propionylamino]-3'-deoxyadenosine 5'-triphosphate]	nearly inactive	more or less as potent as ATP	nearly inactive	> 100000	–	more or less as potent as ATP	activity/potency in words, saphenous artery ([5]; rabbit saphenous artery): inactive in the saphenous artery; activity/potency/selectivity in words, aorta ([6]; listed as 3'-[3-(4-hydroxyphenyl)-propionylamino]-3'-deoxy-ATP): considerably more potent than ATP in the aorta; activity/potency/selectivity in words, aorta ([6]; listed as 3-(p-Hydroxyphenyl-propionylamino-3'-deoxy-ATP)): a high degree of selectivity for the aortic endothelial P2Y receptor; activity/potency in words, mesenteric artery [7]: inactive in the mesenteric artery
N#CCCCCCCSc1nc(N)c2ncn([C@@H]3O[C@H](COP(=O)(O)O)[C@@H](O)[C@H]3O)c2n1 [2-(6-Cyanohexyl)thio-AMP, 2-(6-cyanohexylthio)-AMP]	–	–	–	37000	6.2	–	activation at 10 µM ([5]; rabbit saphenous artery, 10 μM): 4.5%; EC50 [1]: 39.8 µM; EC50 ([4]; read-out: K0.5): 37000 nM

More lines, main results first:

activity/potency in words, taenia coli ([1]; guinea pig taenia coli)	activity/potency in words, vas deferens [2]	activity/potency in words, turkey erythrocyte [4]	EC50 [4, 9] [nM]	relaxation pD2, mes. artery [7]	SMILES	activity/potency in words, bladder [3]	also measured
much less potent	without effect	inactive	–	5.0	Nc1ncnc2c1ncn2[C@@H]1O[C@H](COP(=O)(O)O)[C@@H](O)[C@H]1O [AMP, adenosine 5'-monophosphate, reference compound]	inactive	relaxation pD2, aorta [6]: 4.8; activation at 100 µM ([4]; 5 min, at 10^-4 M, read-out: % stimulation at concentration indicated): 4 ± 2%
–	–	–	> 100000	–	C=CCCCCSc1nc(NC)c2ncn([C@@H]3O[C@H](COP(=O)(O)O)[C@@H](O)[C@H]3O)c2n1 [N^6 -Me-2-(5-hexenyl)-thio-AMP, N^6 -Me-2-(5-hexenylthio)adenosine monophosphate]	–	activation at 10 µM ([5]; rabbit saphenous artery, 10 μM): 6.7%
–	without effect in the vas deferens	–	143000	6.7	O=c1ccn([C@@H]2O[C@H](COP(=O)(O)OP(=O)(O)OP(=O)(O)O)[C@@H](O)[C@H]2O)c(=O)[nH]1 [UTP, reference compound]	as potent as or more potent than ATP in the bladder	EC50 [1, 8]: 316 µM; relaxation pD2, aorta [6]: 4.8
